This note sets out measurements from ChEMBL document CHEMBL5303573, “Mapping human microbiome drug metabolism by gut bacteria and their genes” (Nature, 2019).

Data set [1] can be described thus: The drug is tested on Edwardsiella tarda strain: ATCC23685 for biotransformation. The drug concentrations were measured before and after a 12-h incubation by liquid-chromatography-coupled mass spectrometry (LC–MS). The settings on record: 2 µM.
Data set [2] can be described thus: The drug is tested on Bacteroides coprophilus strain: DSM18228 for biotransformation. The drug concentrations were measured before and after a 12-h incubation by liquid-chromatography-coupled mass spectrometry (LC–MS). The settings on record: 2 µM.
The conditions of data set [3]: victivallis vadensis, 12 h, 2 µM.
Description: The drug is tested on Victivallis vadensis strain: ATCC BAA-548 for biotransformation. The drug concentrations were measured before and after a 12-h incubation by liquid-chromatography-coupled mass spectrometry (LC–MS)
A short description of data set [4]: The drug is tested on Bacteroides fragilis strain: HMW610 for biotransformation. The drug concentrations were measured before and after a 12-h incubation by liquid-chromatography-coupled mass spectrometry (LC–MS). The settings on record: 2 µM.
For data set [5] the following is noted: bacteroides fragilis, 12 h, 2 µM.
Description: The drug is tested on Bacteroides fragilis strain: DS-208 for biotransformation. The drug concentrations were measured before and after a 12-h incubation by liquid-chromatography-coupled mass spectrometry (LC–MS)
Data set [6] in a line: The drug is tested on Eubacterium hallii strain: DSM3353 for biotransformation. The drug concentrations were measured before and after a 12-h incubation by liquid-chromatography-coupled mass spectrometry (LC–MS). Particulars: anaerobutyricum hallii, 2 µM.
The nature of data set [7]: The drug is tested on Bacteroides vulgatus strain: ATCC8482 for biotransformation. The drug concentrations were measured before and after a 12-h incubation by liquid-chromatography-coupled mass spectrometry (LC–MS). Particulars: phocaeicola vulgatus, 2 µM.
The nature of data set [8]: The drug is tested on Collinsella aerofaciens strain: ATCC25986 for biotransformation. The drug concentrations were measured before and after a 12-h incubation by liquid-chromatography-coupled mass spectrometry (LC–MS). The settings on record: 2 µM.
A short description of data set [9]: The drug is tested on Clostridium symbiosum strain: ATCC14940 for biotransformation. The drug concentrations were measured before and after a 12-h incubation by liquid-chromatography-coupled mass spectrometry (LC–MS). The settings on record: 2 µM.
The nature of data set [10]: The drug is tested on Bacteroides fragilis strain: ATCC43859 for biotransformation. The drug concentrations were measured before and after a 12-h incubation by liquid-chromatography-coupled mass spectrometry (LC–MS). Particulars: 2 µM.
For data set [11] the following is noted: bacteroides thetaiotaomicron, 12 h, 2 µM.
Description: The drug is tested on Bacteroides thetaiotaomicron strain: 7330 for biotransformation. The drug concentrations were measured before and after a 12-h incubation by liquid-chromatography-coupled mass spectrometry (LC–MS)
The conditions of data set [12]: bacteroides thetaiotaomicron, 12 h, 2 µM. The source holds these as a separate data set.
Description: The drug is tested on Bacteroides thetaiotaomicron strain: VPI-5482 for biotransformation. The drug concentrations were measured before and after a 12-h incubation by liquid-chromatography-coupled mass spectrometry (LC–MS)
Data set [13] can be described thus: The drug is tested on Bacteroides cellulosilyticus strain: DSM14838 for biotransformation. The drug concentrations were measured before and after a 12-h incubation by liquid-chromatography-coupled mass spectrometry (LC–MS). The settings on record: 2 µM.
Data set [14] can be described thus: The drug is tested on Bifidobacterium breve strain: DSM20213 for biotransformation. The drug concentrations were measured before and after a 12-h incubation by liquid-chromatography-coupled mass spectrometry (LC–MS). Particulars: 2 µM.
The nature of data set [15]: The drug is tested on Eubacterium rectale strain: ATCC33656 for biotransformation. The drug concentrations were measured before and after a 12-h incubation by liquid-chromatography-coupled mass spectrometry (LC–MS). Particulars: agathobacter rectalis, 2 µM.
A short description of data set [16]: The drug is tested on Clostridium ramosum strain: DSM1402 for biotransformation. The drug concentrations were measured before and after a 12-h incubation by liquid-chromatography-coupled mass spectrometry (LC–MS). Particulars: thomasclavelia ramosa, 2 µM.
The nature of data set [17]: The drug is tested on Bacteroides xylanisolvens strain: DSM18836 for biotransformation. The drug concentrations were measured before and after a 12-h incubation by liquid-chromatography-coupled mass spectrometry (LC–MS). Particulars: 2 µM.
Data set [18] in a line: The drug is tested on Blautia hansenii strain: DSM20583 for biotransformation. The drug concentrations were measured before and after a 12-h incubation by liquid-chromatography-coupled mass spectrometry (LC–MS). The settings on record: 2 µM.
The conditions of data set [19]: bacteroides fragilis, 12 h, 2 µM. This is another data set of the same source.
Description: The drug is tested on Bacteroides fragilis strain: 3397 (T10) for biotransformation. The drug concentrations were measured before and after a 12-h incubation by liquid-chromatography-coupled mass spectrometry (LC–MS)
The nature of data set [20]: The drug is tested on Clostridium sporogenes strain: ATCC15579 for biotransformation. The drug concentrations were measured before and after a 12-h incubation by liquid-chromatography-coupled mass spectrometry (LC–MS). Particulars: 2 µM.

For `CN1CCN(CC/C=C2/c3ccccc3Sc3ccc(S(=O)(=O)N(C)C)cc32)CC1` [THIOTHIXENE], the “Bacterial Biotransformation” value in data set [1] is “Compound metabolized”; in data set [2], “Compound NOT metabolized”; in data set [3], “Compound NOT metabolized”; in data set [4], “Compound NOT metabolized”; in data set [5] it was “Compound NOT metabolized”; in data set [6] it was “Compound NOT metabolized”. For the same compound, the “Bacterial Biotransformation” value in [7] is listed as “Compound metabolized”; in data set [8], “Compound metabolized”; in data set [9], “Compound NOT metabolized”; in data set [10], “Compound NOT metabolized”; in data set [11], “Compound NOT metabolized”; in data set [12], “Compound NOT metabolized”. Besides, the “Bacterial Biotransformation” value in data set [13] is reported as “Compound metabolized”; in data set [14], “Compound metabolized”; in data set [15], “Compound NOT metabolized”; in [16], “Compound metabolized”; in [17], “Compound metabolized”; in data set [18], “Compound metabolized”. Also, the “Bacterial Biotransformation” value in data set [19] was “Compound NOT metabolized”.
Consider `CC(=O)O[C@]1(C(C)=O)CC[C@H]2[C@@H]3C=C(Cl)C4=CC(=O)[C@@H]5C[C@@H]5[C@]4(C)[C@H]3CC[C@@]21C` [CYPROTERONE ACETATE], for which the “Bacterial Biotransformation” value in data set [1] is “Compound NOT metabolized”; in [2], “Compound metabolized”; in data set [3], “Compound NOT metabolized”; in data set [4], “Compound metabolized”; in data set [5], “Compound metabolized”; in [6], “Compound NOT metabolized”. The “Bacterial Biotransformation” value in [7] is recorded as “Compound metabolized”; in [8], “Compound metabolized”; in data set [9], “Compound NOT metabolized”; in [10], “Compound metabolized”; in data set [11], “Compound metabolized”; in data set [13] it was “Compound metabolized”. Further, the “Bacterial Biotransformation” value in [14] is reported as “Compound NOT metabolized”; in data set [16] it was “Compound NOT metabolized”; in data set [17] it was “Compound metabolized”; in [20], “Compound metabolized”; in data set [18], “Compound metabolized”.
For `CC(Oc1c(Cl)cccc1Cl)C1=NCCN1` (stereo unspecified) [LOFEXIDINE], the “Bacterial Biotransformation” value in data set [1] was “Compound metabolized”; in data set [2], “Compound metabolized”; in [3], “Compound metabolized”; in data set [5], “Compound NOT metabolized”; in [6] it was “Compound metabolized”; in data set [7], “Compound metabolized”. The “Bacterial Biotransformation” value in [8], in data set [9], in data set [10], in [11], in [12] and in data set [13] was “Compound metabolized” each time. Also, the “Bacterial Biotransformation” value is given as “Compound metabolized” in data set [14]; “Compound metabolized” in [15]; “Compound metabolized” in data set [16]; “Compound NOT metabolized” in data set [17]; “Compound metabolized” in [20]; “Compound metabolized” in data set [18]. In addition, in [19], the “Bacterial Biotransformation” value is reported as “Compound metabolized”.
Regarding `CCN(CC)CCOCCOC(=O)C1(c2ccccc2)CCCC1.O=C(O)CC(O)(CC(=O)O)C(=O)O` [CARBETAPENTANE CITRATE], the “Bacterial Biotransformation” value in data set [1], in data set [2], in data set [3], in [5], in data set [6] and in data set [7] was “Compound metabolized” each time. The “Bacterial Biotransformation” value in data set [8] is reported as “Compound metabolized”; in [9], “Compound metabolized”; in data set [10], “Compound NOT metabolized”; in [11] it was “Compound metabolized”; in [12], “Compound metabolized”; in [13], “Compound metabolized”. In addition, the “Bacterial Biotransformation” value in [14] is reported as “Compound metabolized”; in data set [15], “Compound NOT metabolized”; in data set [16], “Compound metabolized”; in data set [17], “Compound metabolized”; in [20] it was “Compound metabolized”; in [18], “Compound metabolized”. Moreover, the “Bacterial Biotransformation” value in data set [19] is on record as “Compound metabolized”.
For the compound `CC(C)(Oc1ccc(CCNC(=O)c2ccc(Cl)cc2)cc1)C(=O)O` [BEZAFIBRATE], the “Bacterial Biotransformation” value in data set [1] is reported as “Compound metabolized”; in data set [2], “Compound metabolized”; in data set [3] it was “Compound NOT metabolized”; in [4], “Compound metabolized”; in data set [5], “Compound metabolized”; in [6], “Compound metabolized”. The “Bacterial Biotransformation” value in [7], in [8], in data set [9], in data set [10], in data set [11] and in data set [12] was “Compound metabolized” each time. Moreover, the “Bacterial Biotransformation” value is recorded as “Compound metabolized” in data set [13]; “Compound metabolized” in data set [14]; “Compound NOT metabolized” in data set [15]; “Compound metabolized” in data set [17]; “Compound metabolized” in data set [20]; “Compound NOT metabolized” in [18]. The “Bacterial Biotransformation” value in [19] is “Compound metabolized”.
Consider `CC#C[C@]1(O)CC[C@H]2[C@@H]3CCC4=CC(=O)CCC4=C3[C@@H](c3ccc(N(C)C)cc3)C[C@@]21C` [MIFEPRISTONE], for which the “Bacterial Biotransformation” value in data set [1] is given as “Compound NOT metabolized”; in data set [2], “Compound NOT metabolized”; in data set [3], “Compound NOT metabolized”; in data set [4] it was “Compound metabolized”; in data set [5], “Compound NOT metabolized”; in data set [6], “Compound NOT metabolized”. Besides, the “Bacterial Biotransformation” value in data set [7] was “Compound metabolized”; in data set [8] it was “Compound NOT metabolized”; in data set [9], “Compound NOT metabolized”; in [10] it was “Compound metabolized”; in [11] it was “Compound NOT metabolized”; in data set [12], “Compound NOT metabolized”. The “Bacterial Biotransformation” value in [13] is “Compound NOT metabolized”; in [14], “Compound metabolized”; in [15], “Compound NOT metabolized”; in data set [16] it was “Compound NOT metabolized”; in [18], “Compound metabolized”; in data set [19] it was “Compound NOT metabolized”.
